Experimental data as given in paper PMC7547863 (Biochemistry, 2020).
No end group written: not given here.

Key:
[1] = test system: C. albicans ATCC90028; test: CO-ADD antifungal screening, MIC; format: cell-based, Candida albicans; conditions: yeast nitrogen base, 2.5 × 10^3 CFU/mL, 35 °C 24 h, OD530, n=2
[2] = test system: human dermal microvascular endothelial cells (HDMEC); test: HDMEC cytotoxicity assay; format: cell-based; conditions: concentration at 50% cytotoxicity
[3] = test system: human embryonic kidney cells (HEK 293); test: HEK 293 cytotoxicity assay; format: cell-based; conditions: concentration at 50% cytotoxicity, CO-ADD
[4] = test system: E. coli; conditions: ref [58]; cited from earlier work
[5] = test system: S. aureus; conditions: ref [58]; cited from earlier work

Row | Substance | MIC C. albicans ATCC90028* [1] [µM] | HDMEC (CC50) [2] [µM] | HEK293 (CC50) [3] [µM] | MIC against E. coli [4] [µM] | MIC against S. aureus [5] [µM]
1 | GLFDIVKKVVGALG-NH2 [Au2.2d2, reference compound] | >23 | 64 |  |  | 
2 | GLFDIVKKVVGALK-NH2 [compound 9] | >22 | 103 |  |  | 
3 | GLFDIVKKVVGLLK-NH2 [compound 8] | >21 | 28 |  |  | 
4 | GLFDIVKKVVKLLK-NH2 [compound 7] | >20 | 236 |  |  | 
5 | GLFKLLKKLLKLLK-NH2 [compound 2] | >20 | 2 | >19 |  | 
6 | KLLKLLKKLLGALG-NH2 [compound 16] | 11 | 8 | 7 |  | 
7 | KLLKLLKKLLKALG-NH2 [compound 17] | 20 | 4 | >20 |  | 
8 | KLLKLLKKLLKLLK-NH2 [Klk14, reference compound] | 9 | 3 | 10 |  | 
9 | KLLKLLKKLVGALG-NH2 [compound 15] | 21 | 25 | 12 |  | 
10 | KLLKLVKKVVGALG-NH2 [compound 13] | >22 | 533 |  |  | 
11 | WWKRWKKLRRIFLML |  |  |  | 4 | 4
